From patent publication US6933321B2, “Antiandrogenic biphenyls” (Endorecherche, Inc., priority 2002, dated 2005)
Like-named read-outs stand apart in the source and are kept apart here.

Tested on: Shionogi mouse mammary carcinoma cells
Assay: Antiandrogenic activity on DHT-stimulated Shionogi mouse mammary carcinoma cell number
Type: cell-based
Details: for A = Ki OH-Flu/Ki compound: ratio of Ki of hydroxyflutamide versus tested compound, higher values preferable
[1] = Mus musculus, inhibition of DHT-stimulated Shionogi cell number, 10-12 days, read-out: Antiandrogenic activity IC50
[2] = inhibition of DHT-stimulated Shionogi cell number
[3] = Mus musculus, read-out: Antiandrogenic activity IC50 (nM)

COc1ccc(-c2ccc([N+](=O)[O-])cc2)cc1 [EM-3234]
IC50 [1]: > 500 nM
A = Ki OH-Flu/Ki compound [2]: <0.2

COc1ccc(-c2ccc([N+](=O)[O-])c(C(F)(F)F)c2)cc1 [EM-3393]
IC50 [1]: 129 nM
A = Ki OH-Flu/Ki compound [2]: 0.4

COc1ccc(-c2ccc(C#N)c(C(F)(F)F)c2)cc1 [EM-3394]
IC50 [3]: 49.5 nM
A = Ki OH-Flu/Ki compound [2]: 1.1

N#Cc1ccc(-c2ccc(Cl)cc2)cc1C(F)(F)F [EM-3703]
IC50 [3]: 97 nM
A = Ki OH-Flu/Ki compound [2]: 0.3

COc1ccc(-c2ccc(C#N)cc2)cc1 [EM-3704]
IC50 [1]: > 500 nM
A = Ki OH-Flu/Ki compound [2]: <0.2

N#Cc1ccc(-c2ccc(F)cc2)cc1C(F)(F)F [EM-3705]
IC50 [1]: 129 nM
A = Ki OH-Flu/Ki compound [2]: 0.7

N#Cc1cccc(-c2ccc(C#N)c(C(F)(F)F)c2)c1 [EM-3729]
IC50 [1]: > 500 nM
A = Ki OH-Flu/Ki compound [2]: <0.2

N#Cc1ccc(-c2ccc(C#N)c(C(F)(F)F)c2)cc1 [EM-3730]
IC50 [1]: 190 nM
IC50 (inhibition of DHT-stimulated Shionogi cell number, 10-12 days, read-out: Antiandrogenic activity IC50): 152 nM

CSc1ccc(-c2ccc(C#N)c(C(F)(F)F)c2)cc1 [EM-3732]
IC50 [1]: > 500 nM
A = Ki OH-Flu/Ki compound [2]: <0.2

COc1ccc(Cl)cc1-c1ccc(C#N)c(C(F)(F)F)c1 [EM-3747]
IC50 [1]: > 500 nM
A = Ki OH-Flu/Ki compound [2]: <0.2

C[S+]([O-])c1ccc(-c2ccc(C#N)c(C(F)(F)F)c2)cc1 (stereo not shown) [EM-3812]
IC50 [1]: > 500 nM
A = Ki OH-Flu/Ki compound [2]: <0.2

CN(C)c1ccc(-c2ccc(C#N)c(C(F)(F)F)c2)cc1 [EM-3814]
IC50 [1]: 150 nM
A = Ki OH-Flu/Ki compound [2]: 0.9

N#Cc1ccc(-c2ccc(C(N)=O)cc2)cc1C(F)(F)F [EM-3971]
IC50 [1]: > 500 nM
A = Ki OH-Flu/Ki compound [2]: <0.2

N#Cc1ccc(-c2cc(F)cc(F)c2)cc1C(F)(F)F [EM-3974]
IC50 [1]: > 500 nM
A = Ki OH-Flu/Ki compound [2]: <0.2

N#Cc1ccc(-c2ccc(F)cc2F)cc1C(F)(F)F [EM-3975]
IC50 [1]: 131 nM
A = Ki OH-Flu/Ki compound [2]: 0.77

N#Cc1ccc(-c2ccccc2F)cc1C(F)(F)F [EM-3976]
IC50 [1]: > 500 nM
A = Ki OH-Flu/Ki compound [2]: <0.2

N#Cc1ccc(-c2cccc(F)c2)cc1C(F)(F)F [EM-3977]
IC50 [1]: > 500 nM
A = Ki OH-Flu/Ki compound [2]: <0.2

N#Cc1ccc(-c2ccc(F)cc2)cc1 [EM-3978]
IC50 [1]: > 500 nM
A = Ki OH-Flu/Ki compound [2]: <0.2

CC(O)(c1ccc(-c2ccc(C#N)cc2)cc1)C(F)(F)F (stereo not shown) [EM-3979]
IC50 [1]: > 500 nM
A = Ki OH-Flu/Ki compound [2]: <0.2

CCN(CC)C(=O)c1ccc(-c2ccc(C#N)c(C(F)(F)F)c2)cc1 [EM-3987]
IC50 [1]: > 500 nM
A = Ki OH-Flu/Ki compound [2]: <0.2

N#Cc1ccc(-c2ccc(C#N)cc2)cc1 [EM-3993]
IC50 [1]: > 500 nM
A = Ki OH-Flu/Ki compound [2]: <0.2

N#Cc1ccc(-c2ccc(C(O)C(F)(F)F)cc2)cc1C(F)(F)F (stereo not shown) [EM-3998]
IC50 [1]: > 500 nM
A = Ki OH-Flu/Ki compound [2]: <0.2

N#Cc1ccc(-c2ccc(C#N)c(C(F)(F)F)c2)cc1C(F)(F)F [EM-4012]
IC50 [1]: > 500 nM
A = Ki OH-Flu/Ki compound [2]: <0.2

CC(O)(c1ccc(-c2ccc(C#N)c(C(F)(F)F)c2)cc1)C(F)(F)F (stereo not shown) [EM-4026]
IC50 [1]: > 500 nM
A = Ki OH-Flu/Ki compound [2]: <0.2

N#Cc1ccc(-c2ccccc2C(F)(F)F)cc1C(F)(F)F [EM-4034]
IC50 [1]: > 500 nM
A = Ki OH-Flu/Ki compound [2]: <0.2

COc1ccc(-c2ccc(C#N)cc2)cc1Br [EM-4036]
IC50 [1]: > 500 nM
A = Ki OH-Flu/Ki compound [2]: <0.2

N#Cc1ccc(-c2ccc(F)c(F)c2)cc1C(F)(F)F [EM-4047]
IC50 [3]: > 100 nM
A = Ki OH-Flu/Ki compound [2]: <1

N#Cc1ccc(-c2ccc(N)cc2)cc1 [EM-4049]
IC50 [1]: > 500 nM
A = Ki OH-Flu/Ki compound [2]: <0.2

N#Cc1ccc(-c2ccc(C(F)(F)F)cc2)cc1C(F)(F)F [EM-4051]
IC50 [1]: > 500 nM
A = Ki OH-Flu/Ki compound [2]: <0.2

N#Cc1cc(-c2ccc(C#N)c(C(F)(F)F)c2)ccc1F [EM-4056]
IC50 [1]: > 500 nM
A = Ki OH-Flu/Ki compound [2]: <0.2

N#Cc1ccc(-c2ccc(C#N)c(C(F)(F)F)c2)cc1F [EM-4065]
IC50 [3]: > 500 nM
A = Ki OH-Flu/Ki compound [2]: <0.2

Cc1cc(-c2ccc(C#N)c(C(F)(F)F)c2)ccc1C#N [EM-4069]
IC50 [1]: 110 nM
A = Ki OH-Flu/Ki compound [2]: 0.7

N#Cc1ccccc1-c1ccc(C#N)c(C(F)(F)F)c1 [EM-4071]
IC50 [3]: 33 nM
A = Ki OH-Flu/Ki compound [2]: 2.5

Cc1cc(C#N)ccc1-c1ccc(C#N)c(C(F)(F)F)c1 [EM-4079]
IC50 [3]: 78 nM
A = Ki OH-Flu/Ki compound [2]: 0.8

N#Cc1ccc(-c2ccc(F)c(C(F)(F)F)c2)cc1C(F)(F)F [EM-4093]
IC50 [1]: > 500 nM
A = Ki OH-Flu/Ki compound [2]: <0.2

N#Cc1cc(F)ccc1-c1ccc(C#N)c(C(F)(F)F)c1 [EM-4096]
IC50 [1]: > 500 nM
A = Ki OH-Flu/Ki compound [2]: <0.2

N#Cc1ccc(-c2ccc(C#N)c(C(F)(F)F)c2)cc1Cl [EM-4108]
IC50 [1]: 112 nM
A = Ki OH-Flu/Ki compound [2]: 0.6

N#Cc1ccc(-c2cc(F)c(F)c(F)c2)cc1C(F)(F)F [EM-4116]
IC50 [1]: > 500 nM
A = Ki OH-Flu/Ki compound [2]: <0.2

N#Cc1ccc(-c2ccccc2)cc1C(F)(F)F [EM-4118]
IC50 [1]: > 500 nM
A = Ki OH-Flu/Ki compound [2]: <0.2

N#Cc1ccc(-c2ccc([N+](=O)[O-])cc2)cc1C(F)(F)F [EM-4149]
IC50 [1]: > 500 nM
A = Ki OH-Flu/Ki compound [2]: <0.2

N#Cc1ccc(-c2ccc(N)cc2C(F)(F)F)cc1C(F)(F)F [EM-4154]
IC50 [1]: 145 nM
A = Ki OH-Flu/Ki compound [2]: 0.7

N#Cc1ccc(-c2ccc(F)cc2C(N)=O)cc1C(F)(F)F [EM-4171, 4′-Cyano-4-fluoro-3′-trifluoromethyl-biphenyl-2-carboxylic acid amide]
IC50 [1]: 943 nM
A = Ki OH-Flu/Ki compound [2]: 0.2

N#Cc1ccc(-c2ccc(Br)c(C(F)(F)F)c2)cc1 [EM-4177]
IC50 [1]: > 500 nM
A = Ki OH-Flu/Ki compound [2]: <0.2

N#Cc1ccc(-c2ccc([N+](=O)[O-])c(C(F)(F)F)c2)cc1 [EM-4180]
IC50 [3]: > 500 nM
A = Ki OH-Flu/Ki compound [2]: <0.2

Cc1ccc(-c2ccc(C#N)c(C(F)(F)F)c2)c(C(F)(F)F)c1 [EM-4185]
IC50 [1]: 193 nM
A = Ki OH-Flu/Ki compound [2]: 0.7

N#Cc1ccc(-c2ccc(C#N)c(C(F)(F)F)c2)c(F)c1 [EM-4189]
IC50 [1]: 132 nM
A = Ki OH-Flu/Ki compound [2]: 1.1

COc1ccc(-c2ccc(C#N)c(C(F)(F)F)c2)c(Cl)c1 [EM-4190]
IC50 [1]: 162 nM
A = Ki OH-Flu/Ki compound [2]: 0.9

N#Cc1ccc(-c2c(F)cc(F)cc2F)cc1C(F)(F)F [EM-4203]
IC50 [1]: 280 nM
A = Ki OH-Flu/Ki compound [2]: 0.6

N#Cc1ccc(-c2ccc(C#N)c(C(F)(F)F)c2)c(Cl)c1 [EM-4205]
IC50 [3]: 52 nM
A = Ki OH-Flu/Ki compound [2]: 3.0

CN(C)C(=O)Nc1ccc(-c2ccc(C#N)c(C(F)(F)F)c2)cc1 [EM-4206]
IC50 [1]: > 500 nM
A = Ki OH-Flu/Ki compound [2]: <0.2

N#Cc1ccc(-c2ccc(F)c(Cl)c2)cc1C(F)(F)F [EM-4216]
IC50 [1]: > 500 nM
A = Ki OH-Flu/Ki compound [2]: <0.2

CSc1cc(C#N)ccc1-c1ccc(C#N)c(C(F)(F)F)c1 [EM-4227]
IC50 [1]: 121 nM
A = Ki OH-Flu/Ki compound [2]: 1.2

N#Cc1ccc(-c2ccc(F)c([N+](=O)[O-])c2)cc1C(F)(F)F [EM-4230]
IC50 [1]: > 500 nM
A = Ki OH-Flu/Ki compound [2]: <0.2

N#Cc1ccc(-c2ccc(F)cc2[N+](=O)[O-])cc1C(F)(F)F [EM-4234]
IC50 [3]: 43.2 nM
A = Ki OH-Flu/Ki compound [2]: 3.2

CC(=O)Nc1ccc(-c2ccc(C#N)c(C(F)(F)F)c2)cc1 [EM-4243]
IC50 [1]: > 500 nM
A = Ki OH-Flu/Ki compound [2]: <0.2

CS(=O)(=O)Nc1ccc(-c2ccc(C#N)c(C(F)(F)F)c2)cc1 [EM-4244]
IC50 [1]: > 500 nM
A = Ki OH-Flu/Ki compound [2]: <0.2

COc1ccc(-c2ccc(C#N)cc2)cc1C(F)(F)F [EM-4246]
IC50 [1]: > 500 nM
A = Ki OH-Flu/Ki compound [2]: <0.2

N#Cc1ccc(-c2ccc(Cl)c(C(F)(F)F)c2)cc1 [EM-4248]
IC50 [1]: > 500 nM
A = Ki OH-Flu/Ki compound [2]: <0.2

N#Cc1ccc(-c2ccc(F)c(C(F)(F)F)c2)cc1 [EM-4249]
IC50 [1]: > 500 nM
A = Ki OH-Flu/Ki compound [2]: <0.2

N#Cc1ccc(-c2ccc(C#N)c(C(F)(F)F)c2)c([N+](=O)[O-])c1 [EM-4253]
IC50 [1]: > 500 nM
A = Ki OH-Flu/Ki compound [2]: <0.2

CS(=O)(=O)c1cc(C#N)ccc1-c1ccc(C#N)c(C(F)(F)F)c1 [EM-4255]
IC50 [1]: > 500 nM
A = Ki OH-Flu/Ki compound [2]: <0.2

C[C@@](O)(c1cccc(-c2ccc(C#N)c(C(F)(F)F)c2)c1)C(F)(F)F [EM-4264]
IC50 [3]: 54 nM
A = Ki OH-Flu/Ki compound [2]: 1.6
